Like-named read-outs stand apart in the source and are kept apart here.
Columns and labels:
[1] = tested on: HT29; settings: HT29 (Colon Cancer), 48 hours, SRB
[2] = tested on: M14; settings: M14 (Melanoma), 48 hours, SRB
[3] = tested on: HS578T; experiment: cells; settings: Homo sapiens, Hs-578T, 48 h
[4] = tested on: NCI-H226; settings: NCI-H226 (Non-Small Cell Lung Cancer), 48 hours, SRB
[5] = tested on: OVCAR-8; experiment: cells; settings: Homo sapiens, OVCAR-8, 48 h
[6] = tested on: MDA-MB-435; settings: MDA-MB-435 (Breast Cancer), 48 hours, SRB
[7] = tested on: TK-10; settings: TK-10 (Renal Cancer), 48 hours, SRB
[8] = tested on: MDA-MB-231/ATCC; settings: MDA-MB-231/ATCC (Breast Cancer), 48 hours, SRB
[9] = tested on: COLO 205; settings: COLO 205 (Colon Cancer), 48 hours, SRB
[10] = tested on: NCI-H522; settings: NCI-H522 (Non-Small Cell Lung Cancer), 48 hours, SRB
[11] = tested on: SK-MEL-2; settings: SK-MEL-2 (Melanoma), 48 hours, SRB
[12] = tested on: MDA-MB-468; settings: MDA-MB-468 (Breast Cancer), 48 hours, SRB
[13] = tested on: PC-3; settings: PC-3 (Prostate Cancer), 48 hours, SRB
[14] = tested on: HCC-2998; settings: HCC-2998 (Colon Cancer), 48 hours, SRB
[15] = tested on: MALME-3M; settings: MALME-3M (Melanoma), 48 hours, SRB
[16] = tested on: OVCAR-3; experiment: cells; settings: Homo sapiens, OVCAR-3, 48 h
[17] = tested on: A498; settings: A498 (Renal Cancer), 48 hours, SRB
[18] = tested on: SF-268; settings: SF-268 (CNS Cancer), 48 hours, SRB
[19] = tested on: 786-0; settings: 786-0 (Renal Cancer), 48 hours, SRB
[20] = tested on: NCI/ADR-RES; settings: NCI/ADR-RES (Breast Cancer), 48 hours, SRB
[21] = tested on: SNB-75; experiment: cells; settings: Homo sapiens, SNB-75, 48 h
[22] = tested on: DU-145; settings: DU-145 (Prostate Cancer), 48 hours, SRB
[23] = tested on: HCT-116; settings: HCT-116 (Colon Cancer), 48 hours, SRB
[24] = tested on: SK-MEL-28; settings: SK-MEL-28 (Melanoma), 48 hours, SRB
[25] = tested on: SF-295; experiment: cells; settings: Homo sapiens, SF-295, 48 h
[26] = tested on: MDA-MB-435; experiment: cells; settings: Homo sapiens, MDA-MB-435, 48 h
[27] = tested on: SR; settings: SR (Leukemia), 48 hours, SRB
[28] = tested on: MDA-MB-468; experiment: cells; settings: Homo sapiens, MDA-MB-468, 48 h
[29] = tested on: BT-549; settings: BT-549 (Breast Cancer), 48 hours, SRB
[30] = tested on: SNB-75; settings: SNB-75 (CNS Cancer), 48 hours, SRB
[31] = tested on: SW-620; settings: SW-620 (Colon Cancer), 48 hours, SRB
[32] = tested on: IGROV1; settings: IGROV1 (Ovarian Cancer), 48 hours, SRB

Q: Which TGI [1] does the source give for [2H]On1c2c(c3ccc4c(c31)C=CC(C)(C)O4)C(OC([2H])([2H])[2H])[C@@]13NC(=O)C4(CCCN4C1=O)CC3C2(C)C (stereo partly shown) [Deuterated Methanol Adduct] here?
A: 3.68 µM

Q: What about the TGI [2] of the same molecule?
A: 2.5 µM

Q: And the GI50 [3]?
A: 0.492 µM

Q: What about the TGI [4] of the same molecule?
A: 1.7 µM

Q: What about the GI50 [5] of the same molecule?
A: 0.96 µM

Q: What about the CC50 ([5]; read-out: LC50) of the same molecule?
A: 4.77 µM

Q: And the TGI [6]?
A: 1.77 µM

Q: What about the TGI [7] of the same molecule?
A: 2.35 µM

Q: And the TGI [8]?
A: 1.83 µM

Q: What about the TGI [9] of the same molecule?
A: 1.45 µM

Q: And the TGI [10]?
A: 1.8 µM

Q: And the TGI [11]?
A: 2.28 µM

Q: And the TGI [12]?
A: 1.78 µM

Q: What about the TGI [13] of the same molecule?
A: 2.02 µM

Q: And the TGI [14]?
A: 2.01 µM

Q: What about the TGI [15] of the same molecule?
A: 1.56 µM

Q: What about the GI50 [16] of the same molecule?
A: 0.616 µM

Q: What about the CC50 ([16]; read-out: LC50) of the same molecule?
A: 4.27 µM

Q: And the TGI [17]?
A: 2.22 µM

Q: What about the TGI [18] of the same molecule?
A: 3.01 µM

Q: And the TGI [19]?
A: 2.46 µM

Q: What about the TGI [20] of the same molecule?
A: 9.95 µM

Q: What about the GI50 [21] of the same molecule?
A: 0.265 µM

Q: And the CC50 ([21]; read-out: LC50)?
A: 4.72 µM

Q: And the TGI [22]?
A: 3.12 µM

Q: What about the TGI [23] of the same molecule?
A: 1.97 µM

Q: And the TGI [24]?
A: 1.82 µM

Q: What about the GI50 [25] of the same molecule?
A: 1.28 µM

Q: And the CC50 ([25]; read-out: LC50)?
A: 5.81 µM

Q: And the GI50 [26]?
A: 0.395 µM

Q: What about the CC50 ([26]; read-out: LC50) of the same molecule?
A: 4.72 µM

Q: And the TGI [27]?
A: 1.25 µM

Q: What about the GI50 [28] of the same molecule?
A: 0.292 µM

Q: What about the CC50 ([28]; read-out: LC50) of the same molecule?
A: 6.96 µM

Q: And the TGI [29]?
A: 1.99 µM

Q: And the TGI [30]?
A: 1.27 µM

Q: And the TGI [31]?
A: 1.54 µM

Q: And the TGI [32]?
A: 2.04 µM

Q: What does the source list for CC1(C)C=Cc2c(ccc3c4c(n(O)c23)C(C)(C)C2CC35CCCN3C(=O)C2(NC5=O)C4SCC(NC(=O)CCC(N)C(=O)O)C(=O)NCC(=O)O)O1 (stereo not shown) [Glutathione Adduct]?
A: GI50 [1]: 0.9 µM; TGI [1]: 2.01 µM; CC50 ([1]; read-out: LC50): 4.51 µM; GI50 [2]: 0.996 µM; TGI [2]: 2.63 µM; CC50 ([2]; read-out: LC50): 11.2 µM; GI50 [4]: 0.802 µM; TGI [4]: 2.29 µM; CC50 ([4]; read-out: LC50): 8.33 µM; GI50 [6]: 1.1 µM; TGI [6]: 5.2 µM; CC50 ([6]; read-out: LC50): 22 µM; GI50 [7]: 1.09 µM; TGI [7]: 5.46 µM; CC50 ([7]; read-out: LC50): 17.4 µM; GI50 [8]: 0.931 µM; TGI [8]: 3.68 µM; CC50 ([8]; read-out: LC50): 14.7 µM; GI50 [9]: 0.649 µM; TGI [9]: 15.1 µM; CC50 ([9]; read-out: LC50): 3.51 µM; GI50 [10]: 0.727 µM; TGI [10]: 1.95 µM; CC50 ([10]; read-out: LC50): 6.29 µM; GI50 [11]: 0.877 µM; TGI [11]: 2.44 µM; CC50 ([11]; read-out: LC50): 10.9 µM; GI50 [12]: 0.674 µM; TGI [12]: 1.62 µM; GI50 [13]: 0.906 µM; TGI [13]: 2.59 µM; CC50 ([13]; read-out: LC50): 11.6 µM; GI50 [14]: 0.759 µM; TGI [14]: 1.51 µM; CC50 ([14]; read-out: LC50): 3.02 µM; GI50 [15]: 0.419 µM; TGI [15]: 3.1 µM; CC50 ([15]; read-out: LC50): 25.1 µM; GI50 [17]: 0.804 µM; TGI [17]: 1.83 µM; CC50 ([17]; read-out: LC50): 4.16 µM; GI50 [18]: 1.13 µM; TGI [18]: 2.88 µM; CC50 ([18]; read-out: LC50): 10.9 µM; GI50 [19]: 1.12 µM; TGI [19]: 2.44 µM; CC50 ([19]; read-out: LC50): 6.03 µM; GI50 [20]: 3.94 µM; TGI [20]: 14 µM; CC50 ([20]; read-out: LC50): 44.7 µM; GI50 [22]: 1.16 µM; TGI [22]: 2.65 µM; CC50 ([22]; read-out: LC50): 7.88 µM; GI50 [23]: 0.871 µM; TGI [23]: 1.76 µM; CC50 ([23]; read-out: LC50): 3.55 µM; GI50 [24]: 0.985 µM; TGI [24]: 1.95 µM; CC50 ([24]; read-out: LC50): 3.87 µM; GI50 [27]: 0.228 µM; TGI [27]: 1.28 µM; CC50 ([27]; read-out: LC50): 16.7 µM; GI50 [29]: 0.923 µM; TGI [29]: 2.7 µM; CC50 ([29]; read-out: LC50): 10.5 µM; GI50 [30]: 0.896 µM; TGI [30]: 2.45 µM; CC50 ([30]; read-out: LC50): 8.47 µM; GI50 [31]: 0.713 µM; TGI [31]: 1.5 µM; CC50 ([31]; read-out: LC50): 3.81 µM; GI50 [32]: 1.06 µM; TGI [32]: 2.81 µM; CC50 ([32]; read-out: LC50): 11.9 µM

Source: patent US20110105515A1, “TARGETING THE ONCOPROTEIN NUCLEOPHOSMIN” (President and Fellows of Harvard College, priority 2007, published 2011)
